# Where a name gives a salt, the structure may show the parent alone. Read-outs that look alike come from different tables or passages of the source.
# What was measured:
# [1] = biological target: human β2-AR (Homo sapiens, UniProt P07550)
# [2] = tested on: freshly isolated adult rat cardiomyocytes; experiment: Cardiomyocyte contractility, dose-response; assay type: cell-based; conditions: for maximum contractile response: 10^−8 to 10^−5 M; for EC50: contractility dose-response
# Experimental: All studies were performed within 8 hours of cell isolation.
# The cells were placed on the stage of an inverted microscope (Zeiss model IM-35, Zeiss, Thornwood, N.Y.), perfused with the HEPES-buffered solution at a flow rate of 1.8 mL/minutes, and electrically stimulated at 0.5 Hz at 23° C. Cell length was monitored by an optical edge-tracking method using a photodiode array (Model 1024 SAQ, Reticon, Boston, Mass.) with a 3 ms time resolution. Cell contraction was measured by the percent shortening of cell length following electrical stimulation.
# [3] = IV 5 mg/kg; for Average plasma concentration: average of rats
# [4] = in vivo; conditions: male, Sprague-Dawley, rat, plasma, iv, 5 mg/kg
# [5] = tested on: single ventricular myocytes; experiment: Cardiomyocyte contractility, single dose, with and without ICI 118,551; assay type: cell-based
# Experimental: In these studies, the contraction amplitude indexed by electrical pacing induced shortening of cell length was measured in single ventricular myocytes before and after exposure to a single dose of the test compounds.
# [6] = Average plasma concentration, average of rats, IV 5 mg/kg
# [7] = Individual plasma concentration, individual rat, IV 5 mg/kg
# Sequence of human β2-AR (P07550 whole entry): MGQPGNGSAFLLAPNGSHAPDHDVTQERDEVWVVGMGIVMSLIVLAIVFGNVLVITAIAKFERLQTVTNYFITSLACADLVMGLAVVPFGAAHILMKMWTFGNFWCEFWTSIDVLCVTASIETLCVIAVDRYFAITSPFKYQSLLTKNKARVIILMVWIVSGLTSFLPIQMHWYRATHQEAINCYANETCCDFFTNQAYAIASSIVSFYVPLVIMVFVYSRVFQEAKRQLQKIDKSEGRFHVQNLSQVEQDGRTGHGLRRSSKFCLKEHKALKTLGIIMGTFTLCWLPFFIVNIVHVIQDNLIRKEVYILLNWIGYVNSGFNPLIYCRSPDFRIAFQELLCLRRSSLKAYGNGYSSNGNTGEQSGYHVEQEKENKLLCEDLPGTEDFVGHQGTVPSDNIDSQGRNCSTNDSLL
smiles,measurement,setting,value
"C[C@H](Cc1cccc2ccccc12)NC[C@@H](O)c1cc(O)cc(O)c1.O=C(O)/C=C/C(=O)O (racemic) [(S,R)-5, (S,R)-(+)-5-{1-hydroxy-2-[1-methyl-2-(1-naphthyl)ethylamino]ethyl}-1,3-benzenediol fumarate]",Ki β1/Ki β2,[1],19
"CC(Cc1ccc(O)cc1)NCC(O)c1ccc(O)c(O)c1 (racemic) [(±)-fenoterol, 5-[1-hydroxy-2[[2-(4-hydroxyphenyl)-1-methylethyl]-amino]ethyl]1,2-benzenediol, reference compound]",maximum contractile response,[2],265±11.6 % resting cell length
same,EC50,"[2]; Rattus norvegicus, Cardiomyocyte, read-out: EC50 (converted)",100 nM
"C[C@H](Cc1ccc(O)cc1)NC[C@H](O)c1cc(O)cc(O)c1 [(R,R)-1, (R,R)-(−)-Fenoterol]",Average plasma concentration,[3]; 5 min,1.34 µg/mL
same,Average plasma concentration,[3]; 15 min,0.36 µg/mL
same,Average plasma concentration,[3]; 30 min,0.34 µg/mL
same,Average plasma concentration,[3]; 60 min,0.05 µg/mL
same,Average plasma concentration,[3]; 120 min,0.02 µg/mL
same,Average plasma concentration,[3]; 240 min,0.01 µg/mL
same,Average plasma concentration,[3]; 300 min,0.005 µg/mL
same,Average plasma concentration,[3]; 360 min,0.06 µg/mL
same,AUC,"[3]; rat, two-compartment open model",29.6861 µg·min/mL
same,maximum contractile response,[2],306±11.8 % resting cell length
same,EC50,[2],−7.1±0.2 log [M]
"COc1ccc(C[C@@H](C)NC[C@H](O)c2cc(O)cc(O)c2)cc1 [(R,R)-2, (R,R)-(−)-1-p-Methoxyphenyl-2-(β-3′,5′-dihydroxy-phenyl-β-oxy)ethylamino-propane Fumarate]",AUC,[4],1600 ng·h/mL
same,Vd,[4],2.19 L
same,clearance,[4],15.4 mL/min
same,half-life,[4],13.2 min
same,concentration at 5 min,[4]; [6],2120 ng/mL
same,concentration at 15 min,[4]; [6],580 ng/mL
same,concentration at 30 min,[4]; [6],410 ng/mL
same,concentration at 60 min,[4]; [6],260 ng/mL
same,concentration at 120 min,[4]; [6],170 ng/mL
same,concentration at 240 min,"[4]; Average plasma concentration, average of rats, IV 5 mg/kg, 240 min",120 ng/mL
same,concentration at 300 min,[4]; [6],70 ng/mL
same,concentration at 360 min,[4]; [6],60 ng/mL
same,concentration at 5 min,[4]; [7],1940 ng/mL
same,concentration at 15 min,[4]; [7],480 ng/mL
same,concentration at 30 min,[4]; [7],310 ng/mL
same,concentration at 60 min,[4]; [7],230 ng/mL
same,concentration at 120 min,[4]; [7],140 ng/mL
same,concentration at 300 min,[4]; [7],60 ng/mL
same,concentration at 360 min,[4]; [7],50 ng/mL
same,"systemic exposure (AUC) and clearance compared to (R,R)-fenoterol",[3]; rat,significantly higher systemic exposure (AUC) and longer clearance
"C[C@H](Cc1cccc2ccccc12)NC[C@H](O)c1cc(O)cc(O)c1.O=C(O)/C=C/C(=O)O [(R,R)-5, (R,R)-(−)-5-{1-hydroxy-2-[1-methyl-2-(1-naphthyl)ethylamino]ethyl}-1,3-benzenediol fumarate]",concentration eliciting maximum effect,[5],0.1 µM
same,Ki β1/Ki β2,[1],14
"C[C@@H](Cc1cccc2ccccc12)NC[C@H](O)c1cc(O)cc(O)c1.O=C(O)/C=C/C(=O)O [(R,S)-5, (R,S)-(−)-5-{1-hydroxy-2-[1-methyl-2-(1-naphthyl)ethylamino]ethyl}-1,3-benzenediol fumarate]",concentration eliciting maximum effect,[5],0.1 µM
same,Ki β1/Ki β2,[1],46
same,"systemic exposure (AUC) and clearance compared to (R,R)-fenoterol",[3]; rat,significantly higher systemic exposure (AUC) and longer clearance
"C[C@@H](Cc1ccc(O)cc1)NC[C@@H](O)c1cc(O)cc(O)c1 [(S,S)-1, (S,S)-(+)-Fenoterol]",contractile response,"[5]; single dose, ICI 118,551 10^−7 mol/L",no observed pharmacological effect
same,inotropic effect,[2],only a minor positive inotropic effect

# — patent publication US10562843B2 (The United States of America, as represented by the …, priority 2006, dated 2020)
